# The supplement of paper PMC10883282
# ± gives the standard deviation of the averaged measurements.
# Tests used:
# Experiment in all cases: relative viability vs DMSO control (72 h) (fraction); higher = more viable cells
# G401 = system: G401
# Outline: (§1)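 Relative viability is percent growth read by ATPLite and averaged over up to triplicate wells. Sarcoma cells were seeded in 384-well plates to reach 80–90% confluence and given 2.5 µl of serially diluted compound after 24 h, from source plates of 10 mM to 0.0002 mM. Incubation lasted 72 h at 37 °C, 5% CO2, with 0.1% DMSO vehicle and a 5 µM positive control, and the data were rescaled so 1 equals full and 0 equals none.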
# HT1080 = system: HT1080
# Outline: as §1
# KHOS-240S = system: KHOS-240S
# Outline: as §1
# MES-SA = system: MES-SA
# Outline: as §1
# RD-ES = system: RD-ES
# Outline: as §1
# RD = system: RD
# Outline: as §1
# SK-ES-1 = system: SK-ES-1
# Outline: as §1
# SK-LMS-1 = system: SK-LMS-1
# Outline: as §1
# SW1353 = system: SW1353
# Outline: as §1
# SW982 = system: SW982
# Outline: as §1
# SYO-1 = system: SYO-1
# Outline: as §1
# VA-ES-BJ = system: VA-ES-BJ
# Outline: as §1
compound,measurement,setting,value
CS(=O)(=O)CCNCc1ccc(-c2ccc3ncnc(Nc4ccc(OCc5cccc(F)c5)c(Cl)c4)c3c2)o1 [Lapatinib],relative viability,G401; 0.00017 µM,1.01 ± 0.029
same,relative viability,G401; 0.00051 µM,1.01 ± 0.012
same,relative viability,G401; 0.00152 µM,1.01 ± 0.012
same,relative viability,G401; 0.00457 µM,1.01 ± 0.027
same,relative viability,G401; 0.01372 µM,1.02 ± 0.035
same,relative viability,G401; 0.04115 µM,1.04 ± 0.014
same,relative viability,G401; 0.1235 µM,1.01 ± 0.015
same,relative viability,G401; 0.3704 µM,0.966 ± 0.049
same,relative viability,G401; 1.111 µM,1.02 ± 0.018
same,relative viability,G401; 3.333 µM,1.01 ± 0.042
same,relative viability,G401; 10 µM,0.789 ± 0.089
same,relative viability,HT1080; 0.00017 µM,1.04 ± 0.053
same,relative viability,HT1080; 0.00051 µM,1.035 ± 0.006
same,relative viability,HT1080; 0.00152 µM,1.04 ± 0.036
same,relative viability,HT1080; 0.00457 µM,1.05 ± 0.056
same,relative viability,HT1080; 0.01372 µM,1.07 ± 0.018
same,relative viability,HT1080; 0.04115 µM,1.04 ± 0.047
same,relative viability,HT1080; 0.1235 µM,1.04 ± 0.03
same,relative viability,HT1080; 0.3704 µM,1.059 ± 0.007
same,relative viability,HT1080; 1.111 µM,1.1 ± 0.068
same,relative viability,HT1080; 3.333 µM,1.09 ± 0.029
same,relative viability,HT1080; 10 µM,0.674 ± 0.072
same,relative viability,KHOS-240S; 0.00017 µM,1.04 ± 0.055
same,relative viability,KHOS-240S; 0.00051 µM,1.05 ± 0.045
same,relative viability,KHOS-240S; 0.00152 µM,1.07 ± 0.043
same,relative viability,KHOS-240S; 0.00457 µM,1.06 ± 0.042
same,relative viability,KHOS-240S; 0.01372 µM,1.09 ± 0.06
same,relative viability,KHOS-240S; 0.04115 µM,1.09 ± 0.046
same,relative viability,KHOS-240S; 0.1235 µM,1.07 ± 0.021
same,relative viability,KHOS-240S; 0.3704 µM,1.09 ± 0.029
same,relative viability,KHOS-240S; 1.111 µM,1.08 ± 0.013
same,relative viability,KHOS-240S; 3.333 µM,0.65 ± 0.11
same,relative viability,KHOS-240S; 10 µM,0.345 ± 0.11
same,relative viability,MES-SA; 0.00017 µM,0.933 ± 0.023
same,relative viability,MES-SA; 0.00051 µM,0.918 ± 0.043
same,relative viability,MES-SA; 0.00152 µM,0.904 ± 0.039
same,relative viability,MES-SA; 0.00457 µM,0.912 ± 0.034
same,relative viability,MES-SA; 0.01372 µM,0.923 ± 0.011
same,relative viability,MES-SA; 0.04115 µM,0.931 ± 0.021
same,relative viability,MES-SA; 0.1235 µM,0.945 ± 0.039
same,relative viability,MES-SA; 0.3704 µM,0.9335 ± 0.0061
same,relative viability,MES-SA; 1.111 µM,0.915 ± 0.045
same,relative viability,MES-SA; 3.333 µM,0.683 ± 0.023
same,relative viability,MES-SA; 10 µM,0.0484 ± 0.039
same,relative viability,RD-ES; 0.00017 µM,0.951 ± 0.039
same,relative viability,RD-ES; 0.00051 µM,0.948 ± 0.039
same,relative viability,RD-ES; 0.00152 µM,0.954 ± 0.048
same,relative viability,RD-ES; 0.00457 µM,0.958 ± 0.051
same,relative viability,RD-ES; 0.01372 µM,0.963 ± 0.018
same,relative viability,RD-ES; 0.04115 µM,0.964 ± 0.064
same,relative viability,RD-ES; 0.1235 µM,0.97 ± 0.044
same,relative viability,RD-ES; 0.3704 µM,0.977 ± 0.049
same,relative viability,RD-ES; 1.111 µM,0.951 ± 0.034
same,relative viability,RD-ES; 3.333 µM,0.931 ± 0.018
same,relative viability,RD-ES; 10 µM,0.909 ± 0.08
same,relative viability,RD; 0.00017 µM,1.09 ± 0.095
same,relative viability,RD; 0.00051 µM,1.1 ± 0.069
same,relative viability,RD; 0.00152 µM,1.09 ± 0.083
same,relative viability,RD; 0.00457 µM,1.11 ± 0.062
same,relative viability,RD; 0.01372 µM,1.08 ± 0.071
same,relative viability,RD; 0.04115 µM,1.12 ± 0.053
same,relative viability,RD; 0.1235 µM,1.09 ± 0.051
same,relative viability,RD; 0.3704 µM,1.1 ± 0.038
same,relative viability,RD; 1.111 µM,1.1 ± 0.041
same,relative viability,RD; 3.333 µM,0.98 ± 0.05
same,relative viability,RD; 10 µM,0.0224 ± 0.013
same,relative viability,SK-ES-1; 0.00017 µM,1.05 ± 0.056
same,relative viability,SK-ES-1; 0.00051 µM,1.04 ± 0.042
same,relative viability,SK-ES-1; 0.00152 µM,1.02 ± 0.063
same,relative viability,SK-ES-1; 0.00457 µM,0.98 ± 0.042
same,relative viability,SK-ES-1; 0.01372 µM,1.06 ± 0.077
same,relative viability,SK-ES-1; 0.04115 µM,0.985 ± 0.05
same,relative viability,SK-ES-1; 0.1235 µM,1.02 ± 0.053
same,relative viability,SK-ES-1; 0.3704 µM,1.02 ± 0.067
same,relative viability,SK-ES-1; 1.111 µM,0.983 ± 0.041
same,relative viability,SK-ES-1; 3.333 µM,0.772 ± 0.048
same,relative viability,SK-ES-1; 10 µM,0.0529 ± 0.035
same,relative viability,SK-LMS-1; 0.00017 µM,1.1 ± 0.065
same,relative viability,SK-LMS-1; 0.00051 µM,1.09 ± 0.019
same,relative viability,SK-LMS-1; 0.00152 µM,1.08 ± 0.032
same,relative viability,SK-LMS-1; 0.00457 µM,1.13 ± 0.045
same,relative viability,SK-LMS-1; 0.01372 µM,1.17 ± 0.066
same,relative viability,SK-LMS-1; 0.04115 µM,1.15 ± 0.026
same,relative viability,SK-LMS-1; 0.1235 µM,1.07 ± 0.042
same,relative viability,SK-LMS-1; 0.3704 µM,1.1 ± 0.064
same,relative viability,SK-LMS-1; 1.111 µM,1.11 ± 0.038
same,relative viability,SK-LMS-1; 3.333 µM,0.824 ± 0.046
same,relative viability,SK-LMS-1; 10 µM,0.361 ± 0.03
same,relative viability,SW1353; 0.00017 µM,0.964 ± 0.021
same,relative viability,SW1353; 0.00051 µM,0.962 ± 0.041
same,relative viability,SW1353; 0.00152 µM,0.948 ± 0.039
same,relative viability,SW1353; 0.00457 µM,0.954 ± 0.035
same,relative viability,SW1353; 0.01372 µM,0.932 ± 0.046
same,relative viability,SW1353; 0.04115 µM,0.905 ± 0.037
same,relative viability,SW1353; 0.1235 µM,0.906 ± 0.04
same,relative viability,SW1353; 0.3704 µM,0.85 ± 0.022
same,relative viability,SW1353; 1.111 µM,0.863 ± 0.024
same,relative viability,SW1353; 3.333 µM,0.847 ± 0.023
same,relative viability,SW1353; 10 µM,0.807 ± 0.025
same,relative viability,SW982; 0.00017 µM,1.04 ± 0.045
same,relative viability,SW982; 0.00051 µM,1.04 ± 0.034
same,relative viability,SW982; 0.00152 µM,1.06 ± 0.046
same,relative viability,SW982; 0.00457 µM,1.03 ± 0.071
same,relative viability,SW982; 0.01372 µM,1.05 ± 0.024
same,relative viability,SW982; 0.04115 µM,1.06 ± 0.041
same,relative viability,SW982; 0.1235 µM,1.07 ± 0.052
same,relative viability,SW982; 0.3704 µM,1.09 ± 0.063
same,relative viability,SW982; 1.111 µM,1.09 ± 0.086
same,relative viability,SW982; 3.333 µM,0.968 ± 0.035
same,relative viability,SW982; 10 µM,0.0107 ± 0.00026
same,relative viability,SYO-1; 0.00017 µM,0.955 ± 0.054
same,relative viability,SYO-1; 0.00051 µM,0.93 ± 0.035
same,relative viability,SYO-1; 0.00152 µM,0.958 ± 0.026
same,relative viability,SYO-1; 0.00457 µM,0.959 ± 0.02
same,relative viability,SYO-1; 0.01372 µM,0.936 ± 0.051
same,relative viability,SYO-1; 0.04115 µM,0.949 ± 0.064
same,relative viability,SYO-1; 0.1235 µM,0.934 ± 0.051
same,relative viability,SYO-1; 0.3704 µM,0.944 ± 0.039
same,relative viability,SYO-1; 1.111 µM,0.912 ± 0.03
same,relative viability,SYO-1; 3.333 µM,0.637 ± 0.024
same,relative viability,SYO-1; 10 µM,0.165 ± 0.12
same,relative viability,VA-ES-BJ; 0.00017 µM,1.019 ± 0.008
same,relative viability,VA-ES-BJ; 0.00051 µM,1.01 ± 0.026
same,relative viability,VA-ES-BJ; 0.00152 µM,1.02 ± 0.034
same,relative viability,VA-ES-BJ; 0.00457 µM,1.03 ± 0.014
same,relative viability,VA-ES-BJ; 0.01372 µM,1.01 ± 0.019
same,relative viability,VA-ES-BJ; 0.04115 µM,0.992 ± 0.032
same,relative viability,VA-ES-BJ; 0.1235 µM,0.993 ± 0.033
same,relative viability,VA-ES-BJ; 0.3704 µM,0.979 ± 0.059
same,relative viability,VA-ES-BJ; 1.111 µM,0.985 ± 0.049
same,relative viability,VA-ES-BJ; 3.333 µM,0.927 ± 0.04
same,relative viability,VA-ES-BJ; 10 µM,0.451 ± 0.025
